{"source": "patent US12215140B2", "about": "“Method of stabilizing protein contained in specimen and solution for stabilizing protein contained in specimen” (EIKEN KAGAKU KABUSHIKI KAISHA, priority 2018, dated 2025)", "test_system": "hemoglobin-haptoglobin complex", "test": "Stability of hemoglobin (as hemoglobin-haptoglobin complex) in samples preserved at 37° C. in preservation solution containing 1 unit/L haptoglobin, Hb measured by latex agglutination method (Examples 1 to 7)", "parameters": "species or system human", "settings": "arylboronic acid 15 mmol/L", "how_it_was_run": "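Hemoglobin (~300 µg/L) in 0.5% fecal suspension, or without feces, held at 37 °C for 0–21 days in 40 mmol/L HEPES pH 6.8, 0.1% BSA, 0.1% NaN3, 1 unit/L haptoglobin, with 0–100 mmol/L phenylboronic acid ± sugars. Hb quantified by latex agglutination with anti-human Hb rabbit polyclonal; recovery (%) relative to day 0.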", "key": {"[1]": {"settings": "Feces 1, sugar (if added) 100 mmol/L, 0 days at 37° C."}, "[2]": {"settings": "Feces 1, sugar (if added) 100 mmol/L, 7 days at 37° C."}, "[3]": {"settings": "Feces 1, sugar (if added) 100 mmol/L, 14 days at 37° C."}, "[4]": {"settings": "Feces 2, sugar (if added) 100 mmol/L, 0 days at 37° C."}, "[5]": {"settings": "Feces 2, sugar (if added) 100 mmol/L, 7 days at 37° C."}, "[6]": {"settings": "Feces 2, sugar (if added) 100 mmol/L, 14 days at 37° C."}, "[7]": {"settings": "Feces 3, sugar (if added) 100 mmol/L, 0 days at 37° C."}, "[8]": {"settings": "Feces 3, sugar (if added) 100 mmol/L, 7 days at 37° C."}, "[9]": {"settings": "Feces 3, sugar (if added) 100 mmol/L, 14 days at 37° C."}, "[10]": {"settings": "No feces, sugar (if added) 100 mmol/L, 0 days at 37° C."}, "[11]": {"settings": "No feces, sugar (if added) 100 mmol/L, 7 days at 37° C."}, "[12]": {"settings": "No feces, sugar (if added) 100 mmol/L, 14 days at 37° C."}}}
{"smiles": "OB(O)c1cccc(O)c1", "note": "[3H-PBA, 3-hydroxyphenylboronic acid]", "values": [{"measurement": "Hb concentration", "setting": "[1]", "result": 327, "unit": "µg/L"}, {"measurement": "Recovery ratio with respect to Hb after 0 days", "setting": "[1]", "result": 100, "unit": "%"}, {"measurement": "Hb concentration", "setting": "[2]", "result": 269, "unit": "µg/L"}, {"measurement": "Recovery ratio with respect to Hb after 0 days", "setting": "[2]", "result": 82, "unit": "%"}, {"measurement": "Hb concentration", "setting": "[3]", "result": 268, "unit": "µg/L"}, {"measurement": "Recovery ratio with respect to Hb after 0 days", "setting": "[3]", "result": 82, "unit": "%"}, {"measurement": "Hb concentration", "setting": "Feces 1, 37° C., 0 days", "result": 327, "unit": "µg/L"}, {"measurement": "Recovery ratio with respect to Hb after 0 days", "setting": "Feces 1, 37° C., 0 days", "result": 100, "unit": "%"}, {"measurement": "Hb concentration", "setting": "Feces 1, 37° C., 7 days", "result": 269, "unit": "µg/L"}, {"measurement": "Recovery ratio with respect to Hb after 0 days", "setting": "Feces 1, 37° C., 7 days", "result": 82, "unit": "%"}, {"measurement": "Hb concentration", "setting": "Feces 1, 37° C., 14 days", "result": 268, "unit": "µg/L"}, {"measurement": "Recovery ratio with respect to Hb after 0 days", "setting": "Feces 1, 37° C., 14 days", "result": 82, "unit": "%"}, {"measurement": "Hb concentration", "setting": "[4]", "result": 326, "unit": "µg/L"}, {"measurement": "Recovery ratio with respect to Hb after 0 days", "setting": "[4]", "result": 100, "unit": "%"}, {"measurement": "Hb concentration", "setting": "[5]", "result": 277, "unit": "µg/L"}, {"measurement": "Recovery ratio with respect to Hb after 0 days", "setting": "[5]", "result": 85, "unit": "%"}, {"measurement": "Hb concentration", "setting": "[6]", "result": 264, "unit": "µg/L"}, {"measurement": "Recovery ratio with respect to Hb after 0 days", "setting": "[6]", "result": 81, "unit": "%"}, {"measurement": "Hb concentration", "setting": "Feces 2, 37° C., 0 days", "result": 326, "unit": "µg/L"}, {"measurement": "Recovery ratio with respect to Hb after 0 days", "setting": "Feces 2, 37° C., 0 days", "result": 100, "unit": "%"}, {"measurement": "Hb concentration", "setting": "Feces 2, 37° C., 7 days", "result": 227, "unit": "µg/L"}, {"measurement": "Recovery ratio with respect to Hb after 0 days", "setting": "Feces 2, 37° C., 7 days", "result": 85, "unit": "%"}, {"measurement": "Hb concentration", "setting": "Feces 2, 37° C., 14 days", "result": 264, "unit": "µg/L"}, {"measurement": "Recovery ratio with respect to Hb after 0 days", "setting": "Feces 2, 37° C., 14 days", "result": 81, "unit": "%"}, {"measurement": "Hb concentration", "setting": "[7]", "result": 313, "unit": "µg/L"}, {"measurement": "Recovery ratio with respect to Hb after 0 days", "setting": "[7]", "result": 100, "unit": "%"}, {"measurement": "Hb concentration", "setting": "[8]", "result": 213, "unit": "µg/L"}, {"measurement": "Recovery ratio with respect to Hb after 0 days", "setting": "[8]", "result": 68, "unit": "%"}, {"measurement": "Hb concentration", "setting": "[9]", "result": 206, "unit": "µg/L"}, {"measurement": "Recovery ratio with respect to Hb after 0 days", "setting": "[9]", "result": 66, "unit": "%"}, {"measurement": "Hb concentration", "setting": "Feces 3, 37° C., 0 days", "result": 313, "unit": "µg/L"}, {"measurement": "Recovery ratio with respect to Hb after 0 days", "setting": "Feces 3, 37° C., 0 days", "result": 100, "unit": "%"}, {"measurement": "Hb concentration", "setting": "Feces 3, 37° C., 7 days", "result": 213, "unit": "µg/L"}, {"measurement": "Recovery ratio with respect to Hb after 0 days", "setting": "Feces 3, 37° C., 7 days", "result": 68, "unit": "%"}, {"measurement": "Hb concentration", "setting": "Feces 3, 37° C., 14 days", "result": 206, "unit": "µg/L"}, {"measurement": "Recovery ratio with respect to Hb after 0 days", "setting": "Feces 3, 37° C., 14 days", "result": 66, "unit": "%"}, {"measurement": "Hb concentration", "setting": "[10]", "result": 303, "unit": "µg/L"}, {"measurement": "Recovery ratio with respect to Hb after 0 days", "setting": "[10]", "result": 100, "unit": "%"}, {"measurement": "Hb concentration", "setting": "[11]", "result": 294, "unit": "µg/L"}, {"measurement": "Recovery ratio with respect to Hb after 0 days", "setting": "[11]", "result": 97, "unit": "%"}, {"measurement": "Hb concentration", "setting": "[12]", "result": 296, "unit": "µg/L"}, {"measurement": "Recovery ratio with respect to Hb after 0 days", "setting": "[12]", "result": 98, "unit": "%"}, {"measurement": "Hb concentration", "setting": "No feces, 37° C., 0 days", "result": 303, "unit": "µg/L"}, {"measurement": "Recovery ratio with respect to Hb after 0 days", "setting": "No feces, 37° C., 0 days", "result": 100, "unit": "%"}, {"measurement": "Hb concentration", "setting": "No feces, 37° C., 7 days", "result": 294, "unit": "µg/L"}, {"measurement": "Recovery ratio with respect to Hb after 0 days", "setting": "No feces, 37° C., 7 days", "result": 97, "unit": "%"}, {"measurement": "Hb concentration", "setting": "No feces, 37° C., 14 days", "result": 296, "unit": "µg/L"}, {"measurement": "Recovery ratio with respect to Hb after 0 days", "setting": "No feces, 37° C., 14 days", "result": 98, "unit": "%"}]}
